Experimental data as given in US11369625B2, “Anti-tumor agent, anti-tumor effect enhancer, and anti-tumor kit” (FUJIFILM Corporation, priority 2017, dated 2022).

Legend:
tumor = details: oral administration to mice; cited from earlier work
[1] = system: human pancreatic cancer cell line Capan-1; assay: Combinational effect test in Capan-1 subcutaneously implanted tumor-bearing model mouse (anti-tumor effect); format: in vivo, BALB/cA Jcl-nu mice; set-up: key to vs. control: * statistically significant; details: for T/C (%): average RTV of treated group / average RTV of control group x 100, Day 33; for GC (%): growth of control, calculated from RTV at Day 33; for RTV (mean ± standard deviation): relative tumor volume, TV at Day 33 / TV at Day 1, tail vein once a week, three times, n=8; for vs. control: statistical significance of RTV vs. control group, Day 33
Protocol: Combinational effect test in Capan-1 subcutaneously implanted tumor-bearing model mouse
Gemcitabine (hereinafter, also referred to as Gem), Abraxane (hereinafter, also referred to as Abx), and methanesulfonate of Compound A were used as test substances.
Gemcitabine was prepared by dissolving gemcitabine hydrochloride (manufactured by Teva Pharmaceutical Industries Limited) in physiological saline. Abraxane was prepared by dissolving Abraxane (manufactured by Celgene Corporation) in physiological saline.
Capan-1 cell, a human pancreatic cancer cell line, was subcutaneously injected into the posterior flank of 5 to 6-week old female BALB/cA Jcl-nu mice. After tumor implantation, the major diameter (mm) and minor diameter (mm) of the tumor were measured, and the tumor volume (TV) was calculated. Mice were assigned to each group so that the average TV of each group was equal, and the day on which this grouping (n=8) was carried out was taken as Day 1.
The test liquid in Abraxane alone group was prepared to be 30 mg/kg/day as the administration dose. In addition, the test liquid in Compound A alone group was prepared to be 480 mg/kg/day. Compound A was administered from the mouse tail vein a total of three times from Day 1 once a week, and Abraxane was similarly administered from the mouse tail vein a total of three times from Day 1 once a week. In the combined administration group, Compound A was administered at 480 mg/kg/day and Abraxane was administered at 30 mg/kg/day.
As a comparative experiment, gemcitabine was used as a control. The test liquid of gemcitabine alone group was prepared to be 240 mg/kg/day. Gemcitabine was administered from the mouse tail vein a total of three times from Day 1 once a week. In the combined administration group, gemcitabine was administered at 240 mg/kg/day and Abraxane was administered at 30 mg/kg/day.
In this test, doses of Compound A and gemcitabine were set using MTD of each drug. Abraxane was used at the maximum dose usable in combination with each drug. […] In this test example, the MTD and the maximum effect dose are almost synonymous.
As an index of anti-tumor effect, TV at Day 33 was measured in each drug administration group. According to the following equation, a relative tumor volume (RTV) with respect to Day 1 and T/C (%) were calculated to evaluate the anti-tumor effect. […] TV (mm^3)=(major diameter×minor diameter^2)/2 RTV=(TV at Day 33)/(TV at Day 1) T/C (%)=[(average RTV value of test liquid administered group)/(average RTV value of control group)]×100
On the combinational effect of the present invention, the results of evaluation using a combination index (CI) which is a quantitative index of the combinational effect are shown. The CI can be calculated by the following equation according to Cancer Research, 2010, Vol. 70, pp. 440 to 446.
That is, in the case where the drugs to be used in combination are drugs 1 and 2, CI=(T/C at the time of combination use)÷100/{[(T/C of drug 1)÷100]×[(T/C of drug 2)÷100]} CI=1: additive effect CI>1: antagonistic effect CI<1: synergistic effect
In addition, on the combinational effect of the present invention, the results of evaluation using a tumor growth inhibitory effect (growth of control (GC)) are shown. For the evaluation method, the same method as in B of FIG. 5 of Molecular Cancer Therapeutics, 2013, Vol. 12, pp. […] was used.
As described in the above document, the GC can be calculated by the following equation. In the case where RTV>1 GC (%)=[(corresponding drug RTV-1)/(control RTV-1)]×100 [1] In the case where RTV≤1 GC (%)=(corresponding drug RTV-1)×100 [2]
Combinational effect was estimated from the drug efficacy with Abraxane and Compound A or gemcitabine alone by the following calculation equation. The estimated combination use GC (%)=[GC (%) of Abraxane×drug alone GC (%)]÷100

Row | SMILES | anti-tumor activity (tumor) | enhancement of anti-tumor effect in combination use ([1]; Compound A 480 mg/kg/day with Abraxane 30 mg/kg/day, nude mice) | T/C (%) [1] [%] | GC (%) [1] [%] | RTV (mean ± standard deviation) [1] | vs. control [1]
1 | Nc1ccn([C@@H]2S[C@H](CO)[C@@H](O)[C@@H]2F)c(=O)n1 [Compound A, 1-(2-deoxy-2-fluoro-4-thio-β-D-arabinofuranosyl)cytosine] | potent anti-tumor activity | significantly enhanced the anti-tumor effect of Abraxane | 32.2 | 9.6 | 1.29 ± 0.59 | *
2 | Nc1ccn([C@@H]2O[C@H](CO)[C@@H](O)C2(F)F)c(=O)n1 [Gem, gemcitabine, reference compound] |  |  | 68.3 | 57.8 | 2.74 ± 0.41 | *
